From patent US20100267561A1, “HERBICIDAL PYRIDAZINONE DERIVATIVES” (priority 2007, published 2010)

Experiments:
Assay in all cases: Test B pre-/postemergence plant response
Format in all cases: in vivo
[1] = tested on: pigweed (Amaranthus retroflexus)
Procedure, shortened: (§1)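 Preemergence and postemergence (plants 2-18 cm, 1- to 4-leaf stage) applications used test chemicals in a non-phytotoxic solvent with surfactant. Plants were held in a greenhouse 13 to 15 days, then rated visually against controls on a 0-100 scale (0 no effect, 100 complete control).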

[2] = tested on: common ragweed (Ambrosia elation)
Procedure, shortened: as §1

kochia (Kochia scoparia) = conditions: for Kochia plant response rating: postemergence, 0-100 scale; for Plant response rating, Kochia: Postemergence
Procedure, shortened: as §1

[3] = tested on: green foxtail (Setaria viridis); conditions: for Foxtail, Green plant response rating: 8 g ai/ha
Procedure, shortened: as §1

[4] = tested on: lambsquarters (Chenopodium album)
Procedure, shortened: as §1

wild oat (Avena fatua) = tested on: wild oat (Avena fatua)
Procedure, shortened: as §1

[5] = tested on: velvetleaf (Abutilon theophrasti)
Procedure, shortened: as §1

[6] = tested on: cocklebur (Xanthium strumarium); conditions: for Cocklebur plant response rating: 8 g ai/ha
Procedure, shortened: as §1

[7] = tested on: yellow nutsedge (Cyperus esculentus)
Procedure, shortened: as §1

corn (Zea mays) = conditions: for Corn plant response rating: 8 g ai/ha
Procedure, shortened: as §1

[8] = tested on: woolly cupgrass (Eriochloa villosa); conditions: for Cupgrass, Woolly plant response rating: 8 g ai/ha
Procedure, shortened: as §1

[9] = tested on: large crabgrass (Digitaria sanguinalis); conditions: for Crabgrass, Large plant response rating: 8 g ai/ha
Procedure, shortened: as §1

[10] = tested on: blackgrass (Alopecurus myosuroides); conditions: for Blackgrass plant response rating: 8 g ai/ha, postemergence, 0-100 scale
Procedure, shortened: as §1

[11] = 8 g ai/ha, postemergence, 0-100 scale
[12] = Postemergence, 16 g ai/ha, scale 0 to 100
[13] = Postemergence, 31 g ai/ha, scale 0 to 100
[14] = Postemergence, 62 g ai/ha, scale 0 to 100, 0 no effect, 100 complete control
[15] = 62 g ai/ha, scale 0 to 100, 0 no effect, 100 complete control
[16] = Preemergence, 16 g ai/ha, scale 0 to 100 (0 no effect, 100 complete control)
[17] = Preemergence, 31 g ai/ha, 0 to 100 scale, 0 no effect, 100 complete control
[18] = Preemergence, 62 g ai/ha, scale 0 to 100
[19] = Preemergence, 8 g ai/ha, scale 0 to 100
[20] = 16 g ai/ha, postemergence, 0-100 scale

Cc1nn(C)c(=O)c(-n2nc(-c3ccc(Cl)cc3)cc2Cl)c1O [Compound 59]
60: Plant response rating, Oat, Wild (wild oat (Avena fatua); [12]) | Plant response rating, Cupgrass, Woolly [8, 12] | Plant response rating, Crabgrass, Large [9, 14] | Plant response rating, Blackgrass [10, 12]
85: Plant response rating, Corn (corn (Zea mays); [12]) | Plant response rating, Corn (corn (Zea mays); [13]) | Plant response rating, Cupgrass, Woolly [8, 14]
70: Plant response rating, Oat, Wild (wild oat (Avena fatua); [13])
20: Crabgrass, Large plant response rating ([9]; postemergence, 0-100 scale)
45: Oat, Wild plant response rating (wild oat (Avena fatua); [11]) | Plant response rating, Crabgrass, Large [9, 12]
0: Pigweed plant response rating [1, 11] | Plant response rating, Pigweed [1, 12] | Plant response rating, Pigweed [1, 13] | Plant response rating, Pigweed [1, 14] | Ragweed plant response rating [2, 11] | Plant response rating, Ragweed [2, 12] | Plant response rating, Ragweed [2, 13] | Plant response rating, Ragweed [2, 14] | Kochia plant response rating (kochia (Kochia scoparia); 8 g ai/ha) | Plant response rating, Kochia (kochia (Kochia scoparia); 16 g ai/ha, scale 0 to 100) | Plant response rating, Kochia (kochia (Kochia scoparia); 31 g ai/ha, scale 0 to 100) | Plant response rating, Kochia (kochia (Kochia scoparia); [15]) | Lambsquarters plant response rating [4, 11] | Plant response rating, Lambsquarters [4, 12] | Plant response rating, Lambsquarters [4, 13] | Plant response rating, Lambsquarters [4, 14] | Velvetleaf plant response rating [5, 11] | Plant response rating, Velvetleaf [5, 12] | Plant response rating, Velvetleaf [5, 13] | Plant response rating, Velvetleaf [5, 14] | Cocklebur plant response rating ([6]; postemergence, 0-100 scale) | Plant response rating, Cocklebur [6, 12] | Plant response rating, Cocklebur [6, 13] | Plant response rating, Cocklebur [6, 14] | Nutsedge, Yellow plant response rating [7, 11] | Plant response rating, Nutsedge, Yellow [7, 12] | Plant response rating, Nutsedge, Yellow [7, 13] | Plant response rating, Nutsedge, Yellow [7, 14] | Corn plant response rating (corn (Zea mays); postemergence, 0-100 scale) | Blackgrass plant response rating [10]
95: Plant response rating, Foxtail, Green [3, 14]
50: Foxtail, Green plant response rating ([3]; postemergence, 0-100 scale)
90: Plant response rating, Foxtail, Green [3, 12] | Plant response rating, Foxtail, Green [3, 13] | Plant response rating, Corn (corn (Zea mays); [14]) | Plant response rating, Blackgrass [10, 13] | Plant response rating, Blackgrass [10, 14]
65: Plant response rating, Cupgrass, Woolly [8, 13]
55: Cupgrass, Woolly plant response rating ([8]; postemergence, 0-100 scale) | Plant response rating, Crabgrass, Large [9, 13]
80: Plant response rating, Oat, Wild (wild oat (Avena fatua); [14])

Cc1cc(-c2ccc(C(F)(F)F)cc2)nn1-c1c(O)c(C(C)C)nn(C)c1=O [Compound 27]
60: Plant response rating, Foxtail, Green [3, 17]
20: Plant response rating, Blackgrass [10, 16]
75: Plant response rating, Corn (corn (Zea mays); [17])
55: Plant response rating, Cupgrass, Woolly [8, 18]
100: Plant response rating, Blackgrass [10, 18]
30: Plant response rating, Cupgrass, Woolly [8, 17]
85: Plant response rating, Foxtail, Green [3, 18] | Plant response rating, Corn (corn (Zea mays); [18])
50: Plant response rating, Oat, Wild (wild oat (Avena fatua); [17]) | Plant response rating, Oat, Wild (wild oat (Avena fatua); [18]) | Plant response rating, Blackgrass [10, 17]
0: Plant response rating, Pigweed [1, 16] | Plant response rating, Pigweed [1, 17] | Plant response rating, Pigweed [1, 18] | Pigweed plant response rating [1, 19] | Plant response rating, Ragweed [2, 16] | Plant response rating, Ragweed [2, 17] | Plant response rating, Ragweed [2, 18] | Ragweed plant response rating [2, 19] | Plant response rating, Foxtail, Green [3, 16] | Foxtail, Green plant response rating ([3]; Preemergence, scale 0 to 100) | Plant response rating, Lambsquarters [4, 16] | Plant response rating, Lambsquarters [4, 18] | Lambsquarters plant response rating [4, 19] | Plant response rating, Oat, Wild (wild oat (Avena fatua); [16]) | Oat, Wild plant response rating (wild oat (Avena fatua); [19]) | Plant response rating, Velvetleaf [5, 16] | Plant response rating, Velvetleaf [5, 17] | Plant response rating, Velvetleaf [5, 18] | Velvetleaf plant response rating [5, 19] | Plant response rating, Cocklebur [6, 16] | Plant response rating, Cocklebur [6, 17] | Plant response rating, Cocklebur [6, 18] | Cocklebur plant response rating ([6]; Preemergence, scale 0 to 100) | Plant response rating, Nutsedge, Yellow [7, 16] | Plant response rating, Nutsedge, Yellow [7, 17] | Plant response rating, Nutsedge, Yellow [7, 18] | Nutsedge, Yellow plant response rating [7, 19] | Plant response rating, Corn (corn (Zea mays); [16]) | Corn plant response rating (corn (Zea mays); Preemergence, scale 0 to 100) | Plant response rating, Cupgrass, Woolly [8, 16] | Cupgrass, Woolly plant response rating ([8]; Preemergence, scale 0 to 100) | Plant response rating, Crabgrass, Large [9, 16] | Plant response rating, Crabgrass, Large [9, 17] | Plant response rating, Crabgrass, Large [9, 18] | Crabgrass, Large plant response rating ([9]; Preemergence, scale 0 to 100)

CCc1cc(-c2ccc(Br)cc2)nn1-c1c(O)cnn(CC(F)(F)F)c1=O [Compound 73]
85: Cupgrass, Woolly plant response rating ([8]; postemergence, 0-100 scale)
98: Plant response rating, Cupgrass, Woolly [8, 12]
45: Crabgrass, Large plant response rating ([9]; postemergence, 0-100 scale)
70: Plant response rating, Foxtail, Green [3, 12] | Plant response rating, Foxtail, Green [3, 13] | Oat, Wild plant response rating (wild oat (Avena fatua); [11]) | Plant response rating, Crabgrass, Large [9, 12]
40: Foxtail, Green plant response rating ([3]; postemergence, 0-100 scale)
0: Pigweed plant response rating [1, 11] | Pigweed plant response rating [1, 20] | Plant response rating, Pigweed [1, 13] | Plant response rating, Pigweed [1, 14] | Ragweed plant response rating [2, 11] | Ragweed plant response rating [2, 20] | Plant response rating, Ragweed [2, 13] | Plant response rating, Ragweed [2, 14] | Kochia plant response rating (kochia (Kochia scoparia); 8 g ai/ha) | Kochia plant response rating (kochia (Kochia scoparia); 16 g ai/ha) | Plant response rating, Kochia (kochia (Kochia scoparia); 31 g ai/ha, scale 0 to 100) | Plant response rating, Kochia (kochia (Kochia scoparia); [15]) | Lambsquarters plant response rating [4, 11] | Lambsquarters plant response rating [4, 20] | Plant response rating, Lambsquarters [4, 13] | Plant response rating, Lambsquarters [4, 14] | Velvetleaf plant response rating [5, 11] | Velvetleaf plant response rating [5, 20] | Plant response rating, Velvetleaf [5, 13] | Plant response rating, Velvetleaf [5, 14] | Cocklebur plant response rating ([6]; postemergence, 0-100 scale) | Plant response rating, Cocklebur [6, 12] | Plant response rating, Cocklebur [6, 13] | Plant response rating, Cocklebur [6, 14] | Nutsedge, Yellow plant response rating [7, 11] | Nutsedge, Yellow plant response rating [7, 20] | Plant response rating, Nutsedge, Yellow [7, 13] | Plant response rating, Nutsedge, Yellow [7, 14]
60: Blackgrass plant response rating [10]
95: Oat, Wild plant response rating (wild oat (Avena fatua); [20]) | Corn plant response rating (corn (Zea mays); postemergence, 0-100 scale)
100: Plant response rating, Foxtail, Green [3, 14] | Plant response rating, Oat, Wild (wild oat (Avena fatua); [13]) | Plant response rating, Oat, Wild (wild oat (Avena fatua); [14]) | Plant response rating, Corn (corn (Zea mays); [12]) | Plant response rating, Corn (corn (Zea mays); [13]) | Plant response rating, Corn (corn (Zea mays); [14]) | Plant response rating, Cupgrass, Woolly [8, 13] | Plant response rating, Cupgrass, Woolly [8, 14] | Plant response rating, Crabgrass, Large [9, 13] | Plant response rating, Crabgrass, Large [9, 14] | Plant response rating, Blackgrass [10, 12] | Plant response rating, Blackgrass [10, 13] | Plant response rating, Blackgrass [10, 14]
